Results as given in patent US20110212890A1, “METASTIN DERIVATIVE AND USE THEREOF” (Takeda Pharmaceutical Company Limited, priority 2008, published 2011).
Ahx = NCCCCCC(=O)O

What was measured:
male Crl: CD (SD) rats [1] = assay: LH release action in male rat (plasma LH by radioimmunoassay); format: in vivo
Procedure: (§1) For male Crl: CD (SD) rats (8 or 10 weeks old), compounds 1 (10 weeks old), 3, 8, 9, 10 and 11 (8 weeks old) (1, 10 or 100 nmol/kg), and metastin (45-54) (PEPTIDE INSTITUTE, INC., 10 or 100 nmol/kg), which were dissolved in physiological saline, were administered subcutaneously to the dorsum. For the control group, a physiological saline was administered subcutaneously to the dorsum. About 0.4 mL of the blood was collected from the tail vein before the administration (0 hour) and after 0.5, 1, 2, 4 hours of the administration of compounds 1, 3, 8, 9, 10 and 11, and metastin (45-54), or physiological saline. The collected blood was well mixed with 12 μL of 10 w/v % EDTA.2Na-containing trasylol solution (Bayer AG), and then separated by centrifugation at 12,000 rpm for 10 minutes, and the supernatant was recovered as the plasma sample. The concentrations of luteinizing hormone (LH) and total testosterone in the plasma were measured with radioimmunoassay (rat LH RIA Immuno-reagent set, National Hormone and Peptide Program, available from Dr. A. F. Parlow, The National Institute of Diabetes and Digestive and Kidney Diseases, and DPC Total Testosterone Kit, Mitsubishi Chemical Formula Iatron, Inc.).

male Crl: CD (SD) rats [2] = assay: Testosterone release action in male rat (plasma total testosterone by radioimmunoassay); format: in vivo
Procedure: as §1

[3] = subcutaneous to the dorsum, 1, 10 or 100 nmol/kg, AUC from 0 hour to 4 hours after the administration, vs control group

Row | Substance | degree of increase in LH concentration in the plasma in comparison to metastin (45-54) (male Crl: CD (SD) rats [1]; subcutaneous) | degree of increase in total testosterone concentration in the plasma in comparison to metastin (45-54) (male Crl: CD (SD) rats [2]; subcutaneous) | dose showing (significant) increase in the LH concentration in the plasma (AUC) (male Crl: CD (SD) rats [1]; [3]) [nmol/kg] | dose showing (significant) increase in the total testosterone concentration in the plasma (AUC) (male Crl: CD (SD) rats [2]; [3]) [nmol/kg]
1 | PEG5K(CS)-CO-Acp-Tyr-Asn-Trp-Asn-Ser-Phe-Gly-Leu-Arg-Phe-NH2 ({PEG5K(CS)‑CO-Ahx}-YNWNSFGLRF-NH2) [compound 1] | greater degree of increase | greater degree of increase |  | 
2 | metastin (45-54): peptide consisting of the N-terminal 45th-54th amino acid sequence of human metastin (SEQ ID NO: 16); PEPTIDE INSTITUTE, INC. (YNWNSFGLRF) |  |  | 100 | 100
